Assay results as given in US12428377B2, “Sodium-hydrogen exchanger 3 inhibitor compounds” (Eli Lilly and Company, priority 2019, dated 2025).

Key:
male Sprague Dawley rats [1] = assay: Phosphate absorption 15 min after radiolabeled phosphate (Example 2, Compound A, combination); format: in vivo, rat; conditions: Example 2 0.4 mg/kg, plasma 15 min after radiolabeled phosphate, P=0.046 versus vehicle control
Experimental: Effect of Example 2 in Combination with an NPT2b Inhibitor (Compound A) on Phosphate Absorption and Intestinal Phosphate Retention in Rats
The purpose of this study is to investigate in rats the effect of Example 2, Compound A, and an Example 2/Compound A combination on phosphate absorption 15 min after dosing the compounds and the phosphate retained in the intestine 4.25 h after dosing the compounds. The latter is a measure of the oral phosphate load which is absorbed over an extended period.
Two vehicles are used in this study: 1) 1% HEC and 2) 0.46% poly-1-vinylpyrrolidone-co-vinyl acetate in water (PVP-VA vehicle). The vehicle control group in this study receives a 1:1 combination of the two vehicles.
The Example 2, Compound A and phosphate dosing solutions are prepared similarly as described above, except the doses are 0.4 mg/kg for Example 2 and 10 mg/kg for Compound A and they are prepared at a concentration where they would be dosed in a 5 mL/kg volume. […]
Male Sprague Dawley rats are fasted 4 h and then administered appropriate vehicles, 10 mg/kg Compound A, 0.4 mg/kg Example 2, or a combination of both compounds. […] Radioactivity in plasma is measured by scintillation counting and used to calculate the inhibition of phosphate absorption. […] Statistical significance is determined by ANOVA with a Dunnett's comparison to the Example 2/Compound A combination using JMP 12.1.

male Sprague Dawley rats [2] = assay: Radiolabeled phosphate absorption in rats, Studies 1-3 (plasma radioactivity); format: in vivo, rat; conditions: Study 2, rats; for Absorption (vs. vehicle control): mean ± SEM
Experimental: Effect of Example 2 in Combination with an NPT2b Inhibitor (Compound A) on Phosphate Absorption in Rats
NPT2b inhibitor dosing solutions: Compound A and poly-1-vinylpyrrolidone-co-vinyl acetate (PVP-VA, Sigma-Aldrich) are weighed into a bottle at a ratio of 30% Compound A and 70% PVP-VA by weight. A clear yellow solution is prepared by diluting the mixture in MeOH followed by the addition of 2 mol NaOH per mol Compound A using 5 N NaOH. The solution is spray dried by a stream of hot nitrogen and the solid dispersion powder is collected and then further dried in a vacuum oven. Doses for the sprayed dried solid dispersion (SDD) are expressed as active pharmaceutical ingredient (API) throughout.
To make the Compound A dosing solution, an appropriate amount of Compound A SDD is weighed in a vial and dissolved in water (10 mL/kg dosing volume). […] The subsequent solutions for lower doses are prepared by serial dilutions with water. PVP-VA at 7 mg/mL is used as a vehicle control.
NHE3 inhibitor dosing solutions: To make the Example 2 dosing solution, an appropriate amount of the compound is weighed in a vial and dissolved in 1% HEC (10 mL/kg dosing volume). […] The subsequent solutions for lower doses are prepared by serial dilutions with HEC.
To make the radiolabeled phosphate dosing solution, a 16.25 mM Na2HPO4, 0.9% saline, pH 7.4 solution is prepared and filtered using a sterile, 0.22 μm, polyethersulfone, Millex-GP Syringe Filter Unit (EMD Millipore). Radioactive phosphate (H3^33PO4, Perkin Elmer) is added at about 2.5 μCi per mL of the solution and filtered again.
Three separate studies are performed. In these studies, male Sprague Dawley rats, are randomized into groups with approximately equal mean body weights. Following an overnight fast, all the animals are dosed at 10 mL/kg with either vehicle, varying doses of Compound A (Study 1), varying doses of Example 2 (Study 2) or 1.2 mg/kg Compound A and varying doses of Example 2 (Study 3). 15 min later, radiolabeled phosphate is orally dosed in a 2 mL volume. 15 min later, blood is collected and plasma is prepared. Radioactivity (dpm) in 50 μL plasma is measured by scintillation counting and is used to calculate phosphate absorption. The results are normalized with the vehicle controls representing 100% absorption. The curves are fitted with nonlinear regression with variable slope using GraphPad Prism 6 to calculate the ED50 and Emax given in Table 7. […] No curve fit was performed for Compound A alone in Study 1.

SGLT1 = target: T1, SGLT1 (Homo sapiens, UniProt P13866); assay: SGLT1 inhibition (selectivity)
T1 sequence (P13866 1-664): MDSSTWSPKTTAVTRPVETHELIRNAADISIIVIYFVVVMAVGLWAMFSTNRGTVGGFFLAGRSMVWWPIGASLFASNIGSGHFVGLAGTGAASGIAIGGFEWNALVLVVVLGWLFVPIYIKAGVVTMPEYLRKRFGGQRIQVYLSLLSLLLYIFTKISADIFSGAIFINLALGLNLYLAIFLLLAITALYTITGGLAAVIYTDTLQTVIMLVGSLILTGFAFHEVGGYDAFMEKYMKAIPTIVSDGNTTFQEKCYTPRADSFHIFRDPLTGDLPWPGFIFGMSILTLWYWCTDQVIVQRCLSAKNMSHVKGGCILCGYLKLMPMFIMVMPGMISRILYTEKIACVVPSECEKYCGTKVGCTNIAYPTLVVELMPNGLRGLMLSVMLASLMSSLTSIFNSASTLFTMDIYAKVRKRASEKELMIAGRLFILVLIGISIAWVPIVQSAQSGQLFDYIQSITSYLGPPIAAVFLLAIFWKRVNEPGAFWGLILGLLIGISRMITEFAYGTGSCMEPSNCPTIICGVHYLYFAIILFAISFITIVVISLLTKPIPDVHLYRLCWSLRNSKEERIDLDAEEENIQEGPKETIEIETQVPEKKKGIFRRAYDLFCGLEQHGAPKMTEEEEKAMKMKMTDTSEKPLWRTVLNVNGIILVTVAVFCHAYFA

CN1Cc2c(Cl)cc(Cl)cc2[C@H](c2cccc(S(=O)(=O)NCCOCCOCCN/C(=N\C(N)=O)NCCCCN/C(=N/C(N)=O)NCCOCCOCCNS(=O)(=O)c3cccc([C@@H]4CN(C)Cc5c(Cl)cc(Cl)cc54)c3)c2)C1.Cl.Cl [Example 2, [[4-[[N′-Carbamoyl-N-[2-[2-[2-[[3-[(4S)-6,8-dichloro-2-methyl-3,4-dihydro-1H-isoquinolin-4-yl]phenyl]sulfonylamino]ethoxy]ethoxy]ethyl]carbamimidoyl]amino]butylamino]-[2-[2-[2-[[3-[(4S)-6,8-dichloro-2-methyl-3,4-dihydro-1H-isoquinolin-4-yl]phenyl]sulfonylamino]ethoxy]ethoxy]ethylamino]methylene]urea dihydrochloride]
Inhibition of phosphate absorption (male Sprague Dawley rats [1]): 29%
ED50 (male Sprague Dawley rats [2]; Rattus norvegicus, Example 2 alone): 0.041 mg/kg
Absorption (vs. vehicle control) (male Sprague Dawley rats [2]; Example 2 0.001 mg/kg): 97.16 ± 20.76%
Absorption (vs. vehicle control) (male Sprague Dawley rats [2]; Example 2 0.003 mg/kg): 100.81 ± 20.74%
Absorption (vs. vehicle control) (male Sprague Dawley rats [2]; Example 2 0.01 mg/kg): 75.15 ± 15.52%
Absorption (vs. vehicle control) (male Sprague Dawley rats [2]; Example 2 0.03 mg/kg): 83.17 ± 17.99%
Absorption (vs. vehicle control) (male Sprague Dawley rats [2]; Example 2 0.1 mg/kg): 57.29 ± 11.20%
Absorption (vs. vehicle control) (male Sprague Dawley rats [2]; Example 2 0.3 mg/kg): 71.09 ± 13.98%
Absorption (vs. vehicle control) (male Sprague Dawley rats [2]; Example 2 1 mg/kg): 44.29 ± 9.09%
Absorption (vs. vehicle control) (male Sprague Dawley rats [2]; Example 2 3 mg/kg): 60.04 ± 12.00%
Absorption (vs. vehicle control) (male Sprague Dawley rats [2]; Example 2 10 mg/kg): 63.47 ± 8.39%
% Inhibition at the highest dose (phosphate absorption) (male Sprague Dawley rats [2]; Example 2 highest dose tested (10 mg/kg), dihydrochloride): 37%
IC50 (SGLT1): 6.6 µM
